Data: article PMC7377239, “Cardiovascular Effects of Polychlorinated Biphenyls and Their Major Metabolites” (Environmental Health Perspectives, 2020)
Like-named read-outs stand apart in the source and are kept apart here.

What was measured:
[1] = system: iCell endothelial cells (human iPSC-derived ECs); experiment: Tube formation (tubulogenesis) assay in iCell endothelial cells, 18 h; format: cell-based; conditions: Homo sapiens, Endothelial cell, iPSC-EC tube formation, 18 hr; for activity at 0.1 µM: 0.10 µM; for minimal effective concentration: top concentration 100.00 µM
Procedure: The culture conditions of iCell®-endothelial cells were as reported elsewhere ([Iwata et al. 2017]). Briefly, T75 flasks were coated with a fibronectin solution ( 3 μg/cm^2 ) followed by incubation for 1–2 h. Cells were thawed for 3 min in a 37°C water bath. Thawed cells were added to maintenance medium made of VascuLife VEGF Medium Complete Kit, excluding the supplied FBS, and iCell® Endothelial Cells Medium Supplement. The final formulation of the maintenance medium is detailed in ([Iwata et al. 2017]). The aliquoted fibronectin solution was aspirated from the T75 flasks, and cells were seeded at 1.0×10^4 cells/cm^2 . Cells were maintained at 37°C and 5% CO2 with media changes occurring every 2 d and passaged every 3–4 d using TrypLE™ Express. All experiments were conducted on cells between passages 1 and 5.
(§1) Tube formation assays were performed on Geltrex™ LDEV-free reduced growth factor basement membrane using both iCell®-endothelial cells and HUVECs in 384-well format exactly as detailed in Iwata et al. ([2017]). Negative controls included media-only and vehicle control (i.e., 0.5% vol/vol DMSO in cell culture media) wells. Positive assay controls were consistent with previously published reports ([Iwata et al. 2017]) and included TAB ( 50μM ) as a cytotoxic control, and nocodazole ( 0.01–1μM ), suramin ( 0.5–50μM ), histamine ( 0.1–100μM ), and chloroquine ( 1–500μM ) as chemicals associated with specific effects on ECs. Each test chemical was screened in triplicate for each concentration. Briefly, for iCell®-endothelial cells, starvation media consisted of VascuLife® basal medium with 4 mM L-glutamine LifeFactor and 0.1% iCell®-endothelial cells medium supplement. To counter dilution effects, a 2× concentration of the HUVEC maintenance medium supplemented with additional VEGF was created (EGM™-2 BulletKits™ at 2× concentration; also the VEGF component was replaced with 12.5 ng/mL VEGF). Geltrex™ LDEV-free reduced growth factor basement membrane was thawed overnight and dispensed into 384-well plates ( 10μL/well ) with tapping and rotating to evenly coat. The plates were incubated for 1 h in a cell culture incubator at 37°C and 5% CO2 . A 2× PCB plate (containing all of the PCBs and metabolites in dose–response) was prepared in basal media and added, 25μL per well, to the Geltrex™ coated plates. On separate plates, cells were seeded 7,500 (iPSC- ECs) or 3,500 (HUVEC) cells/well. Cells were exposed to chemicals overnight at 37°C and 5% CO2 and stained with 3× concentration of calcein AM ( 25μL /well, 6μmol/L ) for 15 min before imaging. Images were captured at 4× magnification with the FITC filter (calcein AM). Images were analyzed with the angiogenesis module software within MetaXpress™ (Molecular Devices).
(§2) Phenotypic responses were quantitatively assessed using concentration–response modeling as detailed elsewhere ([Sirenko et al. 2017]). Briefly, phenotypic readouts were normalized to vehicle controls and fit to a four-parameter logistic model in R studio software (version 3.1.1; R Development Core Team). Following EPA guidance on dose–response modeling, a cutoff of one standard deviation across means of vehicle control (i.e., 0.5% vol/vol DMSO in cell culture media) wells was applied to determine the point-of-departure (POD) values ([U.S. EPA 2012]). In the absence of a concentration–response, the highest tested concentration (i.e., 100μM ) was assigned as “no observable adverse effect level.” The concentration–response assessment R script, as well as templates for vehicle and concentration–response data, are available as a supplement to Sirenko et al. ([2017]). The ability of physicochemical properties to predict differences in PODs were evaluated by multiregression and mixed-effects modeling using R.

HUVECs = experiment: Tube formation (tubulogenesis) assay in HUVECs, 18 h; format: cell-based, human; conditions: Homo sapiens, HUVEC, 18 h, HUVECs; for activity at 0.1 µM: 0.10 µM; for minimal effective concentration: top concentration 100.00 µM
Procedure: Similar to the cultivation of iCell®-endothelial cells, HUVEC maintenance and experimentation are detailed elsewhere ([Iwata et al. 2017]). Briefly, HUVECs were thawed, seeded, and grown in T75 tissue culture flasks in Medium 199 with EGM™-2 BulletKits™. HUVECs were incubated at regular cell culture conditions, 37°C and 5% CO2 , and passaged every 2–3 d using TrypLE™ Express. To ensure adequate endothelial function, experiments were performed with cells between passages 1 and 5.
as §1, §2

[2] = 0.00 µM control = 100.00, read-out: endo.mtl.18hr
[3] = 0.00 µM control = 100.00, read-out: endo.tlps.18hr
[4] = 0.00 µM control = 100.00, read-out: endo.tta.18hr
[5] = 0.00 µM control = 100.00, read-out: endo.ttl.18hr
[6] = 0.00 µM = 100.00, read-out: huvec.mtl.18hr
[7] = 0.00 µM = 100.00, read-out: huvec.tlps.18hr
[8] = 0.00 µM = 100.00, read-out: huvec.tta.18hr
[9] = 0.00 µM = 100.00, read-out: huvec.ttl.18hr

## Oc1ccc(O)c(-c2ccc(Cl)cc2)c1 [2',5'-DiOH PCB3]
[1]; [2]
  activity at 0.01 µM: 99.4%
  activity at 0.1 µM: 104%
  activity at 1 µM: 62%
  activity at 10 µM: 61.7%
  activity at 100 µM: 58.4%
[1]; [3]
  activity at 0.01 µM: 100%
  activity at 0.1 µM: 103%
  activity at 1 µM: 66.5%
  activity at 10 µM: 30.6%
  activity at 100 µM: 7.76%
[1]; [4]
  activity at 0.01 µM: 127%
  activity at 0.1 µM: 104%
  activity at 1 µM: 60.7%
  activity at 10 µM: 64.9%
  activity at 100 µM: 0.41%
[1]; [5]
  activity at 0.01 µM: 115%
  activity at 0.1 µM: 98.5%
  activity at 1 µM: 55%
  activity at 10 µM: 63%
  activity at 100 µM: 0.74%
[1]; read-out: endo.mtl.18hr POD
  minimal effective concentration: 0.47 µM
[1]; read-out: endo.tlps.18hr POD
  minimal effective concentration: 0.53 µM
[1]; read-out: endo.tta.18hr POD
  minimal effective concentration: 1.63 µM
[1]; read-out: endo.ttl.18hr POD
  minimal effective concentration: 1.51 µM
HUVECs; [6]
  activity at 0.01 µM: 99%
  activity at 0.1 µM: 104%
  activity at 1 µM: 91.9%
  activity at 10 µM: 64.1%
  activity at 100 µM: 57.8%
HUVECs; [7]
  activity at 0.01 µM: 90.3%
  activity at 0.1 µM: 135%
  activity at 1 µM: 93.2%
  activity at 10 µM: 21.9%
  activity at 100 µM: 9.87%
HUVECs; [8]
  activity at 0.01 µM: 127%
  activity at 0.1 µM: 107%
  activity at 1 µM: 87.2%
  activity at 10 µM: 19.3%
  activity at 100 µM: 0.82%
HUVECs; [9]
  activity at 0.01 µM: 123%
  activity at 0.1 µM: 107%
  activity at 1 µM: 90.1%
  activity at 10 µM: 19.9%
  activity at 100 µM: 1.52%
HUVECs; read-out: huvec.mtl.18hr POD
  minimal effective concentration: 1.26 µM
HUVECs; read-out: huvec.tlps.18hr POD
  minimal effective concentration: 1.55 µM
HUVECs; read-out: huvec.tta.18hr POD
  minimal effective concentration: 1.39 µM
HUVECs; read-out: huvec.ttl.18hr POD
  minimal effective concentration: 1.23 µM
